The values that follow come from ChEMBL document CHEMBL1149595, “Novel isomarabarican triterpenes, exhibiting selective anti-proliferative activity against vascular endothelial cells, from marine sponge Rhabdastrella globostellata” (Bioorg Med Chem, 2007).

The subject of data set [1] is HUVEC. Briefly: Growth inhibition of HUVEC cells after 72 hrs. The settings on record: Homo sapiens. The class given is functional, cell-based.
In data set [2] the test system is HUVEC. Put plainly: Selectivity index, ratio of IC50 for Neuro2A cells to IC50 for HUVEC cells. The class given is functional, Homo sapiens.
For data set [3], the system named is HUVEC. Briefly: Selectivity index, ratio of IC50 for KB3-1 cells to IC50 for HUVEC cells. The class given is functional, Homo sapiens.
Data set [4] is described as follows: Growth inhibition of KB3-1 cells after 72 hrs. The class given is functional, cell-based. The note with it: Homo sapiens, KB 3-1, 72 h.
In data set [5] the test system is K562. Put plainly: Selectivity index, ratio of IC50 for K562 cells to IC50 for HUVEC cells. The class given is functional, Homo sapiens.
Data set [6] has as its system K562. Briefly: Growth inhibition of K562 cells after 72 hrs. The class given is functional, cell-based. The settings on record: Homo sapiens, K562, 72 h.
Data set [7] can be described thus: Growth inhibition of Neuro2A cells after 72 hrs. The class given is functional, cell-based. The note with it: N2a.
In data set [8] the test system is KB 3-1. Briefly: Induction of apoptosis assessed as activation of caspase 7 in KB3-1 cells at 10 uM. The settings on record: Homo sapiens. The class given is functional, cell-based.
Data set [9] concerns HUVEC. Put plainly: Induction of apoptosis assessed as activation of caspase 7 in HUVEC cells at 1 uM after 60 hrs. The class given is functional, Homo sapiens.
The test system of data set [10] is HUVEC. Put plainly: Inhibition of VEGF-induced cell migration in HUVEC at 1.0 uM after 12 hrs. The settings on record: Homo sapiens. The class given is functional, cell-based.
The test system of data set [11] is KB 3-1. Briefly: Induction of apoptosis assessed as activation of caspase 3 in KB3-1 cells at 10 uM. The class given is functional, cell-based. The note with it: Homo sapiens.
Data set [12] deals with HUVEC. Put plainly: Induction of apoptosis assessed as activation of caspase 3 in HUVEC cells at 1 uM after 60 hrs. The class given is functional, Homo sapiens.
Data set [13] in a line: Growth inhibition of HUVEC at 10 uM. The class given is cell-based. The settings on record: human, HUVEC cells.
Data set [14] deals with HUVEC. Put plainly: Induction of apoptosis assessed as activation of caspase 3 in HUVEC cells at 10 uM after 60 hrs. The class given is functional, Homo sapiens.
A short description of data set [15]: Growth inhibition of HUVEC at 1 uM. The class given is cell-based. The note with it: human, HUVEC cells.
Data set [16] addresses Mitogen-activated protein kinase 3 (Homo sapiens) (UniProt P27361). Briefly: Inhibition of VEGF-induced ERK1 phosphorylation in HUVEC cells after 6 hrs by immunoblotting. The class given is cell-based. (Immunoblotting shows a protein as a band on a membrane.)
In data set [17] the test system is HUVEC. Briefly: Induction of apoptosis assessed as activation of caspase 7 in HUVEC cells at 10 uM after 60 hrs. The class given is functional, Homo sapiens.
The test system of data set [18] is HUVEC. Put plainly: Induction of apoptosis assessed as activation of caspase 7 in HUVEC cells at 1 uM after 48 hrs. The class given is functional, Homo sapiens.
Data set [19] relates to HUVEC. Put plainly: Induction of apoptosis assessed as activation of caspase 3 in HUVEC cells at 10 uM after 48 hrs. The class given is functional, Homo sapiens.
Data set [20] relates to HUVEC. Briefly: Inhibition of VEGF-induced cell migration in HUVEC at 0.3 uM after 12 hrs. The class given is functional, cell-based. The settings on record: Homo sapiens.
For data set [21], the system named is HUVEC. Briefly: Induction of apoptosis assessed as activation of caspase 7 in HUVEC cells at 10 uM after 48 hrs. The class given is functional, Homo sapiens.
Data set [22] has as its system HUVEC. Put plainly: Induction of apoptosis assessed as activation of caspase 3 in HUVEC cells at 1 uM after 48 hrs. The class given is functional, Homo sapiens.
The target of data set [23] is Mitogen-activated protein kinase 1 (Homo sapiens) (UniProt P28482). Briefly: Inhibition of VEGF-induced ERK2 phosphorylation in HUVEC cells after 6 hrs by immunoblotting. The class given is cell-based.

Molecules are shown by their SMILES. Calls of active or inactive are those of the source. The calls are words filed in the database; no cut-off is given here.

Sequence of Mitogen-activated protein kinase 1 (Homo sapiens) (P28482 whole entry): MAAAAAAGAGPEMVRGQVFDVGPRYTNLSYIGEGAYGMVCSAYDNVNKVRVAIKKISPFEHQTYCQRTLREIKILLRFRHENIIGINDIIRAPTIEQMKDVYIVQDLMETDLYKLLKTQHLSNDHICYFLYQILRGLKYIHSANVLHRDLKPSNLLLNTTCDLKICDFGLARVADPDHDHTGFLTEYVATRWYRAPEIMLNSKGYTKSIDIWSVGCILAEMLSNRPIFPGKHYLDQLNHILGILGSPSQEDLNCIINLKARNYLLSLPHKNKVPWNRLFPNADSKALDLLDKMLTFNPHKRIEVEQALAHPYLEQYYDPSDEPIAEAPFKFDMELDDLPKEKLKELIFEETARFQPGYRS
Sequence of Mitogen-activated protein kinase 3 (Homo sapiens) (P27361 whole entry): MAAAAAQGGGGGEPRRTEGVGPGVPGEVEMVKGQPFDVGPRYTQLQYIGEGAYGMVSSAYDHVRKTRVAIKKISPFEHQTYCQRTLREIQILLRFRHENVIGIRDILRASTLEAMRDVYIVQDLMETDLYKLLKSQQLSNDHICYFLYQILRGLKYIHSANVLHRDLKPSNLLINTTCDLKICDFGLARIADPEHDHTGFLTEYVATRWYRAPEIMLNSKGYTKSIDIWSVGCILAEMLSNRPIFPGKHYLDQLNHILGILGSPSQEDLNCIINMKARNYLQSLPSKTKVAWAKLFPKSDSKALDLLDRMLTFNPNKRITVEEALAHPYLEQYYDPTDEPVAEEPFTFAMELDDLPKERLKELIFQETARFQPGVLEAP

Take `CC(=O)O[C@@H]1CC[C@@]2(C)[C@@H](CC[C@]3(C)/C(=C(C)/C=C/C=O)C(=O)C[C@@H]23)[C@@]1(C)C(=O)O` [ACETYLJASPIFERAL E]: the concentration for half-maximal inhibition (IC50) turned out to be 2.2 µM in data set [1], 28 µM in [4], 32 µM in [6] and 34 µM in data set [7]. For the same compound, the “Ratio IC50” value is 14 in data set [2], 13 in [3] and 15 in data set [5].

With `COC(=O)[C@]1(C)[C@@H]2CC[C@]3(C)/C(=C(C)/C=C/C=C(C)/C=C/C=C(C)C)C(=O)C[C@H]3[C@@]2(C)CC[C@H]1OC(C)=O`, the IC50 in [1] is 0.064 µM; in data set [4], 3.1 µM; in [6], 9 µM; in [7] it was 3.2 µM. The “Ratio IC50” value is 50 in data set [2], 48 in data set [3] and 141 in data set [5].

With `COC(=O)[C@]1(C)[C@@H]2CC[C@]3(C)\C(=C(C)/C=C/C=C(C)/C=C/C=C(C)C)C(=O)C[C@H]3[C@@]2(C)CC[C@H]1OC(C)=O`, the result in data set [8], in data set [11], in [16] and in data set [23] was inactive. The Fold change in [9] was 45; in data set [12] it was 13; in data set [14], 13; in data set [17] it was 45; in data set [18], 17; in [19], 5. Also, the Fold change in data set [21] was determined as 17; in [22] it was 5. Also, the result in data set [10] and in [20] was Active. The results for the “Ratio IC50” value in data set [2] and in data set [5] were 83 and 256, respectively. In [13], this compound came in with an inhibition at 10 µM of more than 90%. Moreover, the inhibition at 1 µM in [15] was more than 90%. Besides, the IC50 in data set [4] came out at 14 µM; in [6], 23 µM; in [7] it was 7.5 µM.

Turning to `COC(=O)[C@@]1(C)[C@H](O)CC[C@@]2(C)[C@H]1CC[C@]1(C)\C(=C(C)/C=C/C=C(C)/C=C/C=C(C)C)C(=O)C[C@@H]21`, the concentration for half-maximal inhibition (IC50) in data set [1] amounted to 0.19 µM; in data set [4], 4.9 µM; in data set [6] it was 5.2 µM; in data set [7], 5.9 µM. Also, the “Ratio IC50” value was 31 in data set [2], 25 in data set [3] and 27 in data set [5].

Turning to `COC(=O)[C@]1(C)[C@@H]2CC[C@]3(C)/C(=C(C)/C=C/C=C(C)\C=C\C=C(C)C)C(=O)C[C@H]3[C@@]2(C)CC[C@H]1OC(C)=O`, the half-maximal inhibitory concentration (IC50) in data set [1] stood at 0.4 µM; in data set [4], 9.8 µM; in [6] it was 22 µM; in [7] it was 7.9 µM. Besides, the “Ratio IC50” value in data set [2] was 19; in data set [3] it was 25; in [5] it was 55.

Consider `COC(=O)[C@]1(C)[C@@H]2CC[C@]3(C)\C(=C(C)/C=C/C=C(C)\C=C\C=C(C)C)C(=O)C[C@H]3[C@@]2(C)CC[C@H]1OC(C)=O`, for which the IC50 stood at 0.06 µM in data set [1], 18 µM in data set [4], 22 µM in [6] and 4.7 µM in data set [7]. The “Ratio IC50” value turned out to be 75 in [2], 200 in [3] and 360 in data set [5].

With `COC(=O)[C@]1(C)[C@@H]2CC[C@]3(C)\C(=C(C)/C=C/C=C(C)/C=C/C=O)C(=O)C[C@H]3[C@@]2(C)CC[C@H]1OC(C)=O` [ACETYLJASPIFERAL B METHYL ESTER], the concentration for half-maximal inhibition (IC50) in data set [1] was 0.78 µM; in [4], 16 µM; in data set [6], 7.8 µM; in data set [7], 22 µM. The “Ratio IC50” value in data set [2] is recorded as 28; in [3], 20; in data set [5] it was 10.

For the compound `COC(=O)[C@]1(C)[C@@H]2CC[C@]3(C)\C(=C(C)/C=C/C=C(\C)C(/C=C/C(C)(C)O)OC)C(=O)C[C@H]3[C@@]2(C)CC[C@H]1OC(C)=O` (stereo partly specified), the half-inhibitory concentration (IC50) in data set [1] is 1.1 µM; in data set [4], 6.5 µM; in [6], 9.3 µM; in data set [7], 6 µM. For the same compound, the “Ratio IC50” value came to 6 in [2], 6 in data set [3] and 9 in [5].

For `COC(=O)[C@]1(C)[C@@H]2CC[C@]3(C)\C(=C(C)/C=C/C=C(C)/C=C/C(O)C(C)(C)O)C(=O)C[C@H]3[C@@]2(C)CC[C@H]1OC(C)=O` (stereo partly specified) [GLOBOSTELLATIC ACID F METHYL ESTER], the IC50 in data set [1] came to 0.98 µM; in data set [4] it was 8.6 µM; in data set [6], 12 µM; in data set [7], 5 µM. For the same compound, the results for the “Ratio IC50” value in data set [2], in [3] and in data set [5] were 5, 9 and 12, respectively.

In the case of `COC(=O)[C@]1(C)[C@@H]2CC[C@]3(C)C(C(C)CCCC(C)CCCC(C)C)C(=O)C[C@H]3[C@@]2(C)CC[C@H]1OC(C)=O` (stereo partly specified), the half-inhibitory concentration (IC50) in data set [1] was more than 100 µM; in data set [4] it was more than 100 µM; in [6], 53 µM; in data set [7], 80 µM.

As a reminder, the IC50 is the concentration needed to halve the response being measured. A higher IC50 goes with weaker potency. As a reminder, the inhibition is the drop in the measured response relative to a control, in per cent.
